Results taken from US20220259656A1, “BLOOD BIOMARKER AND GENETIC MARKERS ASSOCIATED WITH RESPONSE TO CRTH2 RECEPTOR ANTAGONISTS” (Merck Sharp & Dohme Corp., priority 2019, published 2022).

How the values were obtained:
[1] = test system: participants with persistent asthma uncontrolled on montelukast, positive for C allele of rs12748961 SNP; assay: Randomized, placebo-controlled, double-blind clinical study of Compound A added to montelukast; change from baseline in FEV1; assay type: in vivo, human; conditions: for Average Change From Baseline FEV1 (L), Mean: Cmpd A 150 mg + ML
Procedure: The inventors conducted a world-wide, randomized, placebo-controlled, double-blind, parallel group study of the CRTH2 receptor antagonist, {(7R)-4-fluoro-7-[5-(4-fluorobenzyl)-1H-[1,2,3]triazol-1-yl]-6,7,8,9-tetrahydropyrido[1,2-a]indol-10-yl}-acetic acid (hereinafter “Compound A”) in participants with persistent asthma who remained uncontrolled while being maintained on montelukast (ML). At Prescreening Visit 1, participants were tested for the presence of the rs 12748961 SNP to determine eligibility. The primary efficacy analysis compared the effect of Compound A to placebo, when each was added to montelukast, on the average change from baseline in FEV1 using a constrained longitudinal data analysis model.
Eligible participants were male and female participants between the ages of 18 and 65 with persistent asthma for at least 1 year and a documented SNP+test result. Participants also must have had acceptable lung function at Visit 2 and Visit 4 and evidence of reversibility of airway obstruction. Approximately 139 eligible participants whose asthma was uncontrolled during a run-in period of approximately 2 to 4 weeks entered a 6-week double-blind treatment period and were randomized in a 1:1 ratio to receive either Compound A 150 mg and montelukast 10 mg or Compound A 150 mg matching-image placebo and montelukast 10 mg. Randomization was stratified according to the number of C alleles (having either 1 or 2 copies of the allele) at the rs12748961 SNP. The total study duration for each participant was up to 17 weeks.
FIG. 2 is a graphical depiction of the study design. Briefly, salient activities occurring during the study are described below. During a pre-screening visit, a blood sample is collected to assess for the presence of the C-allele of rs12748961 SNP. At the start of the pre-study period, eligible subjects receiving Long-Acting Beta-Agonist (LABA) therapy were asked to discontinue the LABA. During run-in period (approximately 2 to 4 weeks), subjects receive single-blind Compound A 150 mg matching-image placebo and open-label montelukast 10 mg. Subjects taking asthma controller therapies prior to Visit 2 were asked to discontinue or taper off these pre-study medications before randomization while receiving open-label montelukast 10 mg. During the treatment period (approximately 6 weeks): Subjects received double-blind treatment of Compound A 150 mg plus montelukast 10 mg; or Compound A 150 mg matching-image placebo plus montelukast 10 mg.
In order to identify patient groups susceptible to treatment response, the inventors conducted an analysis on pre-specified patient subgroups in the study based on (a) demographic variables (including age, gender, race, weight, height, and body mass index) and (b) baseline characteristics (including duration of asthma, age diagnosed of asthma, asthma controller pre- trial, ICS use, blood eosinophil count, baseline ACQ-6, and smoking history), (c) prior and secondary diagnoses, (d) prior and concomitant therapies, and (e) the number of C alleles of the rs12748961 SNP on asthmatic study subjects who had undergone a clinical trial with a CRTH2 receptor antagonist and the leukotriene antagonist montelukast. The analysis sought to assess whether a mean treatment difference varies across patient subgroups defined by several pre-specified characteristics and who also tested positive for at least one copy of the C allele of the rs12748961 SNP.

allergic rhinitis = conditions: in vivo; cited from earlier work
[2] = test system: patient population afflicted with eosinophilic severe asthma; conditions: patients with eosinophilic severe asthma, Phase IIa; cited from earlier work
[3] = Cmpd A 150 mg + montelukast 10 mg, full study population

## O=C(O)Cc1c2n(c3c(F)cccc13)C[C@H](n1nncc1Cc1ccc(F)cc1)CC2 [Compound A, {(7R)-4-fluoro-7-[5-(4-fluorobenzyl)-1H-[1,2,3]triazol-1-yl]-6,7,8,9-tetrahydropyrido[1,2-a]indol-10-yl}-acetic acid]
[1]; Cmpd A 150 mg + ML vs. placebo + ML, full study population
  Estimated Differences with placebo + ML, Difference in LS Means, FEV1 at Week 4 and Week 6: 107 mL
[1]; Cmpd A 150 mg + ML vs. placebo + ML, subgroup baseline eosinophil count <0.30 × 10^9/L
  Estimated Differences With Placebo + ML, LS Mean, FEV1: 63 mL
[1]; Cmpd A 150 mg + ML vs. placebo + ML, subgroup baseline eosinophil count >0.30 × 10^9/L
  Estimated Differences With Placebo + ML, LS Mean, FEV1: 193 mL
[1]; subgroup baseline eosinophil count <0.30 × 10^9/L
  Average Change From Baseline FEV1 (L), Mean: 0.166 L
[1]; subgroup baseline eosinophil count >0.30 × 10^9/L
  Average Change From Baseline FEV1 (L), Mean: 0.139 L
[1]; [3]
  Average Change from Baseline in FEV1 (L) at Week 4 and Week 6, Mean: 0.156 L
  Average Change from Baseline in FEV1 (L) at Week 4 and Week 6, Median: 0.091 L
[1]; Cmpd A 150 mg + montelukast 10 mg, full study population, 6-week treatment
  FEV1 (L) Average at Week 4 and Week 6, Mean: 2.426 L
[1]; Cmpd A 150 mg + montelukast 10 mg, full study population, cLDA model
  Average Change from Baseline in FEV1 (L) at Week 4 and Week 6, LS Mean: 0.152 L

## O=C(O)CCn1c2c(c3ccccc31)C[C@H](NS(=O)(=O)c1ccc(F)cc1)CC2 [Ramatroban, 3-((3R)-3-{[(4-fluorophenyl)sulfonyl]amino}-1,2,3,4-tetrahydro-9H-carbazol-9-yl)propanoic acid]
Allergic rhinitis
  efficacy in allergic rhinitis: some degree of efficacy

## Cc1c(CC(=O)O)c2cccnc2n1Cc1ccc(S(C)(=O)=O)cc1C(F)(F)F [fevipiprant, 2-(2-methyl-1-(4-(methylsulfonyl)-2-(trifluoromethyl)benzyl)-1H-pyrrolo[2,3-b]pyridin-3-yl)acetic acid]
[2]
  sputum eosinophils: reduction of sputum eosinophils
